Values of other authors, collected in patent US10307430B2, “KATP antagonists (glibenglamid) for use for promoting growth and/or treating hyperglycaemia of a premature infant” (ASSISTANCE PUBLIQUE—HOPITAUX DE PARIS, priority 2011, dated 2019).

Key:
human fetal β cells = human fetal β cells from 14 to 20 week gestational fetus (Weinhaus et al., 2003)
[1] = intravenous, first week of life, very low birth weight infants (Beardsall et al., 2007)
[2] = preterm newborn infants, when used with caution (Mitanchez, 2007; Beardsall and Dunger, 2008)
[3] = early insulin replacement, intravenous (Beardsall et al., 2008)

Cc1cnc(C(=O)NCCc2ccc(S(=O)(=O)NC(=O)NC3CCCCC3)cc2)cn1 [glipizide]
insulin secretion in response to secretagogue (human fetal β cells): able to secrete insulin

COC(=O)C1=C(C)NC(C)=C([N+](=O)[O-])C1c1ccccc1C(F)(F)F (stereo not shown) [BAY K8644]
insulin secretion in response to secretagogue (human fetal β cells): able to secrete insulin

[Cl-].[K+] [KCl]
insulin secretion in response to secretagogue (human fetal β cells): able to secrete insulin

insulin
IGF-I levels [1]: increases IGF-I levels | blood glucose control [1]: improves blood glucose control | endogenous glucose production [2]: efficient to reduce endogenous glucose production | risk of hypoglycaemia [3]: increased risk of hypoglycaemia | weight loss in the first week of life [3]: reduced weight loss | glucose control (early insulin replacement, intravenous, 194 very-low-birth-weight infants (Beardsall et al., 2008)): improved glucose control | clinical benefit (early insulin therapy, infants with very low birth weight (Beardsall et al., 2008)): no clinical benefit
